# Measured values as given in PMC11676667, “Pharmacokinetics of Oral Cannabinoid Δ8-Tetrahydrocannabivarin and Its Main Metabolites in Healthy Participants” (Pharmaceuticals, 2024).
# Where two headings read alike, the source gives them in different places.
# Assay: Plasma pharmacokinetics after single oral dose of Δ8-THCV in MCT oil (LC-MS/MS, non-compartmental analysis)
# Type: in vivo, human
# Set-up: Clast (last quantifiable concentration): unit not given here
# Details: for Clast (last quantifiable concentration) / tlast (time to last quantifiable concentration) / concentration at 0.5 h / concentration at 1 h / concentration at 2 h / concentration at 4 h / concentration at 6 h / concentration at 8 h / AUC(0-t) / Cmax / MRT / Tmax: plasma; for plasma concentration: Predose; for concentration at 0.5 h / concentration at 1 h / concentration at 2 h / concentration at 4 h / concentration at 6 h / concentration at 8 h / AUC(0-t) / Cmax / MRT / Tmax: human; for concentration at 0.5 h / concentration at 1 h / concentration at 2 h / concentration at 4 h / concentration at 6 h / concentration at 8 h: oral; for AUC(0-t) / Cmax / MRT / Tmax: po; for MRT: read-out: MRT (mean residence time); for Tmax: read-out: tmax
# In short: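 Healthy participants received single oral Δ8-THCV in MCT oil (50 mg/mL; 12.5-200 mg, or placebo) after a high-fat, high-calorie breakfast, with ≥1-week washout. Plasma (K2EDTA) sampled predose and 0.5-8 h post-dose, assayed by validated LC-MS/MS including metabolites; PK by non-compartmental analysis, sub-LLOQ values set to 0.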
# [1] = 100 mg single oral Δ8-THCV in MCT oil, Mean (±SD)
# [2] = 100 mg single oral Δ8-THCV in MCT oil, Median (Range)
# [3] = 200 mg single oral Δ8-THCV in MCT oil, Mean (±SD)
# [4] = 200 mg single oral Δ8-THCV in MCT oil, Median (Range)
# [5] = 12.5 mg, 12.5 mg Δ8-THCV dose, Mean (SD, %CV)
# [6] = 12.5 mg, 12.5 mg Δ8-THCV dose, Median (IQ Range)
# [7] = 25 mg, 25 mg Δ8-THCV dose, Mean (SD, %CV)
# [8] = 25 mg, 25 mg Δ8-THCV dose, Median (IQ Range)
# [9] = 50 mg, 50 mg Δ8-THCV dose, Mean (SD, %CV)
# [10] = 50 mg, 50 mg Δ8-THCV dose, Median (IQ Range)
# [11] = 100 mg, 100 mg Δ8-THCV dose, Mean (SD, %CV)
# [12] = 100 mg, 100 mg Δ8-THCV dose, Median (IQ Range)
# [13] = 200 mg, 200 mg Δ8-THCV dose, Mean (SD, %CV)
# [14] = 200 mg, 200 mg Δ8-THCV dose, Median (IQ Range)
# [15] = 100 mg, 100 mg single oral Δ8-THCV in MCT oil, Mean (±SD)
# [16] = 100 mg, 100 mg single oral Δ8-THCV in MCT oil, Median (Range)
# [17] = 200 mg, 200 mg single oral Δ8-THCV in MCT oil, Mean (±SD)
# [18] = 200 mg, 200 mg single oral Δ8-THCV in MCT oil, Median (Range)
structure (smiles),measurement,setting,value
"CCCc1cc(O)c2c(c1)OC(C)(C)[C@@H]1CCC(C)=C[C@@H]21 [Δ9-THCV, Δ9-tetrahydrocannabivarin]",Clast (last quantifiable concentration),[1],1.1 (±0.5)
same,tlast (time to last quantifiable concentration),[1],4.8 (±1.5)
same,Clast (last quantifiable concentration),[2],0.8 (0.5–1.9)
same,tlast (time to last quantifiable concentration),[2],5 (2–6)
same,Clast (last quantifiable concentration),[3],1.5 (±1)
same,tlast (time to last quantifiable concentration),[3],6.2 (±2.1)
same,Clast (last quantifiable concentration),[4],1.4 (0.5–4.1)
same,tlast (time to last quantifiable concentration),[4],6 (2–8)
same,plasma concentration,"12.5 mg Δ8-THCV dose, Mean (SD, %CV)","0 (±0, --) ng/mL"
same,plasma concentration,"12.5 mg Δ8-THCV dose, Median (IQ Range)",0 (0–0) ng/mL
same,plasma concentration,"25 mg Δ8-THCV dose, Mean (SD, %CV)","0 (±0, --) ng/mL"
same,plasma concentration,"25 mg Δ8-THCV dose, Median (IQ Range)",0 (0–0) ng/mL
same,plasma concentration,"50 mg Δ8-THCV dose, Mean (SD, %CV)","0 (±0, --) ng/mL"
same,plasma concentration,"50 mg Δ8-THCV dose, Median (IQ Range)",0 (0–0) ng/mL
same,plasma concentration,"100 mg Δ8-THCV dose, Mean (SD, %CV)","0 (±0, --) ng/mL"
same,plasma concentration,"100 mg Δ8-THCV dose, Median (IQ Range)",0 (0–0) ng/mL
same,plasma concentration,"200 mg Δ8-THCV dose, Mean (SD, %CV)","0 (±0, --) ng/mL"
same,plasma concentration,"200 mg Δ8-THCV dose, Median (IQ Range)",0 (0–0) ng/mL
same,concentration at 0.5 h,[5],0 ng/mL
same,concentration at 0.5 h,[6],0 ng/mL
same,concentration at 1 h,[5],0 ng/mL
same,concentration at 1 h,[6],0 ng/mL
same,concentration at 2 h,[5],0 ng/mL
same,concentration at 2 h,[6],0 ng/mL
same,concentration at 4 h,[5],0 ng/mL
same,concentration at 4 h,[6],0 ng/mL
same,concentration at 6 h,[5],0 ng/mL
same,concentration at 6 h,[6],0 ng/mL
same,concentration at 8 h,[5],0 ng/mL
same,concentration at 8 h,[6],0 ng/mL
same,concentration at 0.5 h,[7],0 ng/mL
same,concentration at 0.5 h,[8],0 ng/mL
same,concentration at 1 h,[7],0 ng/mL
same,concentration at 1 h,[8],0 ng/mL
same,concentration at 2 h,[7],0 ng/mL
same,concentration at 2 h,[8],0 ng/mL
same,concentration at 4 h,[7],0 ng/mL
same,concentration at 4 h,[8],0 ng/mL
same,concentration at 6 h,[7],0 ng/mL
same,concentration at 6 h,[8],0 ng/mL
same,concentration at 8 h,[7],0 ng/mL
same,concentration at 8 h,[8],0 ng/mL
same,concentration at 0.5 h,[9],0 ng/mL
same,concentration at 0.5 h,[10],0 ng/mL
same,concentration at 1 h,[9],0 ng/mL
same,concentration at 1 h,[10],0 ng/mL
same,concentration at 2 h,[9],0 ng/mL
same,concentration at 2 h,[10],0 ng/mL
same,concentration at 4 h,[9],0 ng/mL
same,concentration at 4 h,[10],0 ng/mL
same,concentration at 6 h,[9],0.1 ng/mL
same,concentration at 6 h,[10],0 ng/mL
same,concentration at 8 h,[9],0 ng/mL
same,concentration at 8 h,[10],0 ng/mL
same,concentration at 0.5 h,[11],0 ng/mL
same,concentration at 0.5 h,[12],0 ng/mL
same,concentration at 1 h,[11],0.1 ng/mL
same,concentration at 1 h,[12],0 ng/mL
same,concentration at 2 h,[11],0.1 ng/mL
same,concentration at 2 h,[12],0 ng/mL
same,concentration at 4 h,[11],0.3 ng/mL
same,concentration at 4 h,[12],0 ng/mL
same,concentration at 6 h,[11],0.3 ng/mL
same,concentration at 6 h,[12],0 ng/mL
same,concentration at 8 h,[11],0 ng/mL
same,concentration at 8 h,[12],0 ng/mL
same,concentration at 0.5 h,[13],0 ng/mL
same,concentration at 0.5 h,[14],0 ng/mL
same,concentration at 1 h,[13],0 ng/mL
same,concentration at 1 h,[14],0 ng/mL
same,concentration at 2 h,[13],0.6 ng/mL
same,concentration at 2 h,[14],0 ng/mL
same,concentration at 4 h,[13],0.9 ng/mL
same,concentration at 4 h,[14],0.7 ng/mL
same,concentration at 6 h,[13],0.7 ng/mL
same,concentration at 6 h,[14],0.6 ng/mL
same,concentration at 8 h,[13],0.6 ng/mL
same,concentration at 8 h,[14],0 ng/mL
same,AUC(0-t),[15],1.4 ng·h/mL
same,Cmax,[15],1.1 ng/mL
same,AUC(0-t),[16],1.2 ng·h/mL
same,Cmax,[16],0.9 ng/mL
same,MRT,[15],4.4 h
same,Tmax,[15],4.6 h
same,MRT,[16],4.4 h
same,Tmax,[16],5 h
same,AUC(0-t),[17],4.8 ng·h/mL
same,Cmax,[17],2 ng/mL
same,AUC(0-t),[18],4.5 ng·h/mL
same,Cmax,[18],1.7 ng/mL
same,MRT,[17],4.5 h
same,Tmax,[17],4.9 h
same,MRT,[18],4.6 h
same,Tmax,[18],4 h
same,number of positive plasma samples,of 504 plasma samples from 15 participants after oral Δ8-THCV,42
same,concentration in representative plasma sample,"one subject after oral Δ8-THCV in MCT oil, Figure A1",2.4 ng/mL
